Drawing on patent US10030016B2 (Sunesis Pharmaceuticals, Inc., priority 2009, dated 2018), this text covers IC50 and EC50 for 26 compounds.

Counter-ions that a name gives are not always drawn. Like-named read-outs stand apart in the source and are kept apart here.

The IC50 is the concentration at which inhibition is half-maximal. A lower IC50 goes with higher potency. Usually EC50 stands for the concentration needed to bring the measured effect to its halfway point.

The target in one assay is PDK1 (Homo sapiens (Human), UniProt O15530). In words: PDK1 kinase assay (coupled PDK1/AKT/FAM-crosstide assay, IMAP fluorescence polarization). It is filed as biochemical. The gist of the method: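 GST-tagged human PDK1 (aa 51-359, 0.75 nM) from insect cells activated unphosphorylated GST-AKT2 (aa 140-467–PIFtide fusion, 10 nM), which phosphorylated 100 nM FAM-crosstide; 40 μM ATP, pH 7.2 Tris/MgCl2, 30 min at 25° C. IMAP fluorescence polarization read-out; ΔmP versus compound concentration fitted with a 4-parameter curve.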
A general note: In fluorescence polarisation assays a small probe gives low polarisation when free and higher when bound to something large.

Assay [1] relates to phospho-akt (Thr308) in PC-3 cells. Briefly: Inhibition of phospho-akt (Thr308) in PC-3 cells, MSD phospho-akt 308 ELISA kit. It is filed as cell-based. To be noted: 2 hours, no serum, read-out: EC50. The gist of the method:
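Serum-free 2 h compound exposure of overnight-seeded PC-3 cells, threefold dilution series; lysates analysed on blocked MSD plates (3% BSA) for Thr308-phosphorylated Akt, normalised between DMSO and 5 μM wortmannin wells.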
(In general: An ELISA detects its analyte on a solid surface through an enzyme-linked reagent.)

[2] abbreviates: Homo sapiens, inhibition of P308 Akt in PC-3 cells using MSD.
[3] abbreviates: inhibition of phospo-PDK1 in vitro.
Setting [4] is: Homo sapiens, PC-3, 2 h, inhibition of P308 Akt in PC-3 cells, MSD.
Where [5] appears, read: Homo sapiens, inhibition of P308 Akt in PC-3 cells, MSD.

PDK1, sequence (O15530 51-359): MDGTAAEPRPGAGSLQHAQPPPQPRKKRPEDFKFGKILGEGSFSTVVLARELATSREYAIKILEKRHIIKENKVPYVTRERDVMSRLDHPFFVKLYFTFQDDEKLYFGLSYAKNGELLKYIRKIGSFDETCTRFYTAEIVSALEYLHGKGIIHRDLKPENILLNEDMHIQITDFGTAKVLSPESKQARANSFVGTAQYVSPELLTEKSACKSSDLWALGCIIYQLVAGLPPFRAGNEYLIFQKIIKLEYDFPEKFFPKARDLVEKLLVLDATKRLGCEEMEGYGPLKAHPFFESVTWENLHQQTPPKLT

In turn, `Nc1n[nH]c2ncc(-c3ccc(CNc4ncc(C(F)(F)F)cc4C(=O)Nc4ccc(F)c(F)c4)cc3)cc12` [Example 263, 2-(4-(3-amino-1H-pyrazolo [3,4-b]pyridin-5-yl)benzylamino)-N-(3,4-difluorophenyl)-5-(trifluoromethyl) nicotinamide] returned an IC50 against PDK1 (inhibition of PDK1 in vitro) of under 100 nM. The EC50 in assay [1] (setting [2]) is under 1000 nM.
At PDK1 (setting [3]), `C[C@H](NC(=O)c1nccnc1NCc1ccc(-c2cc3c(N)ncnc3cn2)s1)c1ccc(F)cc1` [Example 3.79, 3-({[5-(4-aminopyrido[3,4-d]pyrimidin-6-yl)thiophen-2-yl]methyl}amino)-N-[(1S)-1-(4-fluorophenyl)ethyl] pyrazine-2-carboxamide (TFA salt)] came in with an IC50 of 100 to 1000 nM. Besides, the concentration giving a half-maximal response (EC50) in assay [1] (setting [4]) is under 1000 nM.
As for `C[C@H](NC(=O)c1cc(C#N)cnc1NCc1ccc(-c2cnc(N)c(C(=O)N(C)C)n2)cc1)c1ccc(F)cc1` [Example 210, (S)-3-amino-6-(4-((5-cyano-3-(1-(4-fluorophenyl)ethylcarbamoyl)pyridin-2-ylamino)methyl)phenyl)-N,N-dimethylpyrazine-2-carboxamide], the IC50 against PDK1 (inhibition of PDK1 in vitro) was under 100 nM. Besides, the EC50 in assay [1] (setting [2]) is 1000 to 10000 nM.
For `Cc1cnc2c3cc(-c4ccc(CNc5ncccc5C(=O)N[C@@H](C)c5ccc(F)c(F)c5)s4)ccc3ncn12` [Example 49, (S)-N-(1-(3,4-difluorophenyl)ethyl)-2-((5-(3-methyl-imidazo[1,2-c]quinazolin-9-yl)thiophen-2-ylmethyl)amino) nicotinamide], in that order: under 100 nM and over 10000 nM.
Turning to `C[C@H](NC(=O)c1cc(C#N)cnc1NCc1ccc(-c2cnc3[nH]nc(C#CCN(C)C)c3c2)cc1)c1ccc(F)cc1` [Example 146, (S)-5-cyano-2-(4-(3-(3-(dimethylamino)prop-1-ynyl)-1H-pyrazolo[3,4-b]pyridin-5-yl)benzyl-amino)-N-(1-(4-fluorophenyl)ethyl) nicotinamide], at PDK1 (inhibition of PDK1 in vitro), the 50% inhibitory concentration (IC50) is under 100 nM. In assay [1] (setting [2]), the EC50 was under 1000 nM.
The like results for `CNc1n[nH]c2ncc(-c3ccc(CNc4ncc(C#N)nc4C(=O)N[C@@H](C)c4ccc(F)c(F)c4)cc3)cc12` [Example 52, (S)-6-cyano-N-(1-(3,4-difluorophenyl)ethyl)-3-(4-(3-(methylamino)-1H-pyrazolo[3,4-b]pyridin-5-yl)benzylamino)pyrazine-2-carboxamide] were, in that order, under 100 nM and under 1000 nM.
On PDK1 (setting [3]), `COCCNc1ncnc2ccc(-c3ccc(CNc4ncccc4C(=O)N[C@@H](C)c4ccc(F)c(F)c4)s3)cc12` [Example 4.33] yielded an IC50 of under 100 nM. Also, in assay [1] (setting [5]), the concentration for a half-maximal effect (EC50) lay in the range of 1000 to 10000 nM.
The compound `C[C@H](NC(=O)c1cc(C#N)cnc1NCc1ccc(-c2ccc(N)nc2)cc1F)c1ccc(F)cc1` [Example 128] returned an IC50 against PDK1 (inhibition of PDK1 in vitro) of under 100 nM. The concentration giving a half-maximal response (EC50) in assay [1] (setting [2]) was in the range of 1000 to 10000 nM.
Turning to `O=C(NCc1ccc(F)c(F)c1)c1cccnc1NCc1ccc(-c2cnc3[nH]ccc3c2)s1` [Example 2.31, 2-(((5-(1H-pyrrolo[2,3-b]pyridin-5-yl)thiophen-2-yl)methyl)amino)-N-(3,4-difluorobenzyl) nicotinamide], the IC50 against PDK1 (setting [3]) was 100 to 1000 nM. In assay [1] (inhibition of P308 Akt in PC-3 cells, MSD), the EC50 lay in the range of 1000 to 10000 nM.
With `C[C@H](NC(=O)c1cc(C#N)cnc1NCc1ccc(-c2ccnc(N)n2)cc1)c1ccc(F)cc1` [Example 117, (S)-2-(4-(2-amino-pyrimidin-4-yl)benzylamino)-5-cyano-N-(1-(4-fluorophenyl)ethyl) nicotinamide], on PDK1 (inhibition of PDK1 in vitro), the IC50 is over 5000 nM. The EC50 in assay [1] (setting [2]) was 1000 to 10000 nM.
The compound `C[C@H](NC(=O)c1nccnc1NCc1ccc(-c2ccc3ncnc(N)c3c2)s1)c1cccc(F)c1` [Example 3.69, 3-({[5-(4-aminoquinazolin-6-yl)thiophen-2-yl]methyl}amino)-N-[(1S)-1-(3-fluorophenyl)ethyl] pyrazine-2-carboxamide (TFA salt)] came in with an IC50 against PDK1 (setting [3]) of under 100 nM. Also, in assay [1] (setting [5]), the EC50 is 1000 to 10000 nM.
Compound `Nc1n[nH]c2ncc(-c3ccc(CNc4ncc(C(F)(F)F)cc4C(=O)Nc4ccc(F)cn4)cc3)cc12` [Example 59, 2-(4-(3-amino-1H-pyrazolo[3,4-b]pyridin-5-yl)benzylamino)-N-(5-fluoropyridin-2-yl)-5-(trifluoromethyl)nicotinamide] returned an IC50 against PDK1 (inhibition of PDK1 in vitro) of under 100 nM. Also, the 50% effective concentration (EC50) in assay [1] (setting [2]) is under 1000 nM.
As to `C[C@H](NC(=O)c1nc(C#N)cnc1NCc1ccc(-c2cnc(N)c(O[C@H]3CCC[C@@H]3N)n2)cc1)c1ccc(F)c(F)c1` [Example 169, 3-{4-[5-Amino-6-((1S,2S)-2-amino-cyclopentyloxy)-pyrazin-2-yl]-benzylamino}-6-cyano-pyrazine-2-carboxylic acid [(S)-1-(3,4-difluoro-phenyl)-ethyl]-amide], at PDK1 (inhibition of PDK1 in vitro), the IC50 is under 100 nM. Moreover, in assay [1] (setting [2]), the EC50 was under 1000 nM.
Take `Cn1cc(C(=O)NCc2ccc(F)c(F)c2)c(NCc2ccc(-c3ccc4ncnc(N)c4c3)s2)n1` [Ex. 11.1]: at PDK1 (setting [3]), the IC50 was under 100 nM. Also, in assay [1] (setting [5]), the EC50 is 1000 to 10000 nM.
`C[C@H](NC(=O)c1nc(C#N)cnc1NCc1ccc(-c2ccc3c(N)ncnn23)cc1)c1ccc(F)c(F)c1` [Example 181, 3-[4-(4-Amino-pyrrolo [2,1-f][1,2,4]triazin-7-yl)-benzylamino]-6-cyano-pyrazine-2-carboxylic acid [(S)-1-(3,4-difluoro-phenyl)-ethyl]-amide] returned an IC50 against PDK1 (inhibition of PDK1 in vitro) of under 100 nM. Moreover, the EC50 in assay [1] (setting [2]) is under 1000 nM.
The like results for `C[C@H](NC(=O)c1cc(C#N)cnc1NCc1ccc(-c2cnc(N)c(C#N)c2)cc1)c1ccc(F)cc1` [Example 115, (S)-2-(4-(6-amino-5-cyanopyridin-3-yl)benzylamino)-5-cyano-N-(1-(4-fluorophenyl)ethyl) nicotinamide] were, in that order, under 100 nM and over 10000 nM.
In turn, `C[C@H](NC(=O)c1cccnc1NCc1ccc(-c2ccc3ncnc(N)c3c2)s1)c1ccc(F)c(F)c1` [Example 3.41, (S)-2-(((5-(4-aminoquinazolin-6-yl)thiophen-2-yl)methyl)amino)-N-(1-(3,4-difluorophenyl)ethyl) nicotinamide (TFA salt)] returned an IC50 against PDK1 (setting [3]) of under 100 nM. For the same compound, the EC50 in assay [1] (setting [4]) was under 1000 nM.
Turning to `N#Cc1cnc(NCc2ccc(-c3c[nH]c4ncnc(N)c34)cc2)c(C(=O)Nc2ccc(F)cc2)n1` [Example 320, 3-(4-(4-amino-7H-pyrrolo[2,3-d]pyrimidin-5-yl)benzylamino)-6-cyano-N-(4-fluorophenyl) pyrazine-2-carboxamide], on PDK1 (inhibition of PDK1 in vitro), the IC50 is under 100 nM. Further, in assay [1] (setting [2]), the EC50 was under 1000 nM.
`CNC(=O)c1cc(S(=O)(=O)NCc2ccccc2)cnc1NCc1ccc(-c2ccc3ncnc(N)c3c2)s1` [Example 8.6.15, 2-(((5-(4-aminoquinazolin-6-yl)thiophen-2-yl)methyl)amino)-5-(N-benzylsulfamoyl)-N-methylnicotinamide] returned an IC50 against PDK1 (setting [3]) of under 100 nM. Moreover, the EC50 in assay [1] (setting [5]) was over 10000 nM.
`Nc1n[nH]c2ncc(-c3ccc(CNc4ncc(C(F)(F)F)cc4-c4nc5cc(F)ccc5[nH]4)cc3)cc12` [Example 349, 5-(4-((3-(5-fluoro-1H-benzo[d]imidazol-2-yl)-5-(trifluoromethyl)pyridin-2-ylamino)methyl)phenyl)-1H-pyrazolo[3,4-b] pyridin-3-amine] yielded a concentration for half-maximal inhibition (IC50) against PDK1 (inhibition of PDK1 in vitro) of over 5000 nM. Besides, the EC50 in assay [1] (setting [2]) is over 10000 nM.
For `C[C@H](NC(=O)c1cc(C#N)cnc1NCc1ccc(-c2ncnc(N)c2F)cc1)c1ccc(F)cc1` [Example 101, (S)-2-(4-(6-amino-5-fluoropyrimidin-4-yl)-benzylamino)-5-cyano-N-(1-(4-fluorophenyl)ethyl)nicotinamide], in that order: over 5000 nM and over 10000 nM.
Compound `CC(N)CCc1nc(-c2ccc(CNc3ncc(C(F)(F)F)cc3C(=O)Nc3ccc(F)cc3)cc2)cnc1N` (stereo not shown) [Example 86, 2-{4-[5-Amino-6-(3-amino-butyl)-pyrazin-2-yl]-benzylamino}-N-(4-fluoro-phenyl)-5-trifluoro-methyl-nicotinamide] had an IC50 at PDK1 (inhibition of PDK1 in vitro) of under 100 nM. For the same compound, the concentration giving a half-maximal response (EC50) in assay [1] (inhibition of P308 Akt in PC-3 cells using MSD) is under 1000 nM.
Take `O=C(NCc1ccc(F)c(F)c1)c1cccnc1Nc1cccc(-c2cccn3c(=O)[nH]nc23)c1` [Example 17.3]: at PDK1 (setting [3]), the IC50 lay within 100 to 1000 nM. Besides, the EC50 in assay [1] (setting [5]) is over 10000 nM.
For `C[C@H](NC(=O)c1nc(C#N)cnc1NCc1ccc(-c2ccc3ncnc(N)c3c2)s1)c1ccc(F)c(F)c1` [Ex. 10.9, 3-({[5-(4-aminoquinazolin-6-yl)thiophen-2-yl]methyl}amino)-6-cyano-N-[(1S)-1-(3,4-difluorophenyl)ethyl] pyrazine-2-carboxamide], in that order: 100 to 1000 nM and under 1000 nM.
At PDK1 (inhibition of PDK1 in vitro), `CCCn1cc(-c2ccc(CNc3ncc(C(F)(F)F)cc3C(=O)Nc3ccc(F)cc3)cc2)c2c(N)ncnc21` [Example 429, 2-(4-(4-amino-7-propyl-7H-pyrrolo[2,3-d]pyrimidin-5-yl)benzylamino)-N-(4-fluorophenyl)-5-(trifluoromethyl)nicotinamide] displayed an IC50 of under 100 nM. The EC50 in assay [1] (setting [2]) fell in the range of 1000 to 10000 nM.
As for `O=C(NCc1ccc(F)c(F)c1)c1cccnc1NCc1ccc(-c2ccc3ncnc(NCCN4CCCC4)c3c2)s1` [Example 4.20, N-(3,4-difluorobenzyl)-2-(((5-(4-(2-(pyrrolidin-1-yl)ethylamino)quinazolin-6-yl)thiophen-2-yl)methyl)amino)nicotinamide], the IC50 against PDK1 (setting [3]) is 100 to 1000 nM. For the same compound, in assay [1] (setting [5]), the 50% effective concentration (EC50) was over 10000 nM.
